Patent publication US20100249175A1, “Dicationic compounds which selectively recognize G-quadruplex DNA” (priority 2005, published 2010)

What was measured:
Type in all cases: binding
[1] = system: modified human telomere sequences; assay: CD titration with modified human telomere sequences; details: 50 mM KCl, 10 mM K2HPO4, 0.1 mM EDTA, pH 7.0
From the text: (§1) The oligonucleotides d[AG3(T2AG3)3] (SEQ ID NO: 1), d[AG3TG4AG3TG4A] (SEQ ID NO: 2), d[G4(T4G4)3] (SEQ ID NO: 3), d[(T2G4)4] (SEQ ID NO: 4), d[(GC)7] (SEQ ID NO: 5), d[[…]] (SEQ ID NO: 6), d[G2T2G2TGTG2T2G2] (SEQ ID NO: 7), d[[…]] (SEQ ID NO: 8), d[[…]] (SEQ ID NO: 9), d[[…]] (SEQ ID NO: 10), d[[…]] (SEQ ID NO: 11), d[TTAGGGT] (SEQ ID NO: 12), and d[TGGGGT] (SEQ ID NO: 13) were purchased with HPLC purification from Midland Certified Reagent Company (The Midland Certified Reagent Company, Inc., Midland, Tex., USA). The concentration of each DNA sample was determined spectrophotometrically at 260 nm using the nearest neighbor extinction coefficient.
Stock solutions of individual dicationic polyaryl compounds were prepared in double distilled water and diluted to working concentrations immediately before use with buffer. […] Absorbance spectra were obtained on a Varian Cary 300 BIO UV-visible spectrophotometer (Varian, Inc., Palo Alto, Calif., United States of America) in a quartz cell with a 1 cm pathlength. CD spectra were recorded using a Jasco J-810 spectrapolarimeter (Jasco, Inc., Easton, Md., United States of America) in a 1-cm cell using an instrument scanning speed of 50 nm/min with a response time of 1 s. The spectra were averaged over four scans. A buffer baseline scan was collected in the same cuvette and subtracted from the average scan for each sample. […]

[2] = system: Tetrahymena telomere, d[(T2G4)4] (SEQ ID NO: 4); assay: CD titration with Tetrahymena telomere; details: HEPES buffer containing 50 mM KCl
From the text: as §1
Stock solutions of individual dicationic polyaryl compounds were prepared in double distilled water and diluted to working concentrations immediately before use with buffer. All measurements were performed at 20° C. in a 10 mM HEPES buffer (pH 7.4) containing 3 mM EDTA and 50 mM KCl, NaCl, or LiCl. Absorbance spectra were obtained on a Varian Cary 300 BIO UV-visible spectrophotometer (Varian, Inc., Palo Alto, Calif., United States of America) in a quartz cell with a 1 cm pathlength. CD spectra were recorded using a Jasco J-810 spectrapolarimeter (Jasco, Inc., Easton, Md., United States of America) in a 1-cm cell using an instrument scanning speed of 50 nm/min with a response time of 1 s. The spectra were averaged over four scans. […]

[3] = system: human telomeric DNA; assay: Thermal melting (ΔTm) of human telomeric DNA; details: HEPES buffer containing 50 mM KCl monitored at 295 nm (data not shown)
[4] = system: telomeric G-quadruplex DNA sequence d[AG3(T2AG3)3] (SEQ ID NO: 1); assay: CD titration of compounds into human telomeric G-quadruplex DNA (induced CD)
From the text: as §1
Stock solutions of individual dicationic polyaryl compounds were prepared in double distilled water and diluted to working concentrations immediately before use with buffer. All measurements were performed at 20° C. in a 10 mM HEPES buffer (pH 7.4) containing 3 mM EDTA and 50 mM KCl, NaCl, or LiCl. Absorbance spectra were obtained on a Varian Cary 300 BIO UV-visible spectrophotometer (Varian, Inc., Palo Alto, Calif., United States of America) in a quartz cell with a 1 cm pathlength. CD spectra were recorded using a Jasco J-810 spectrapolarimeter (Jasco, Inc., Easton, Md., United States of America) in a 1-cm cell using an instrument scanning speed of 50 nm/min with a response time of 1 s. The spectra were averaged over four scans. A buffer baseline scan was collected in the same cuvette and subtracted from the average scan for each sample. Appropriate amounts of dicationic compound stock solution or DNA were added sequentially to increase the molar ratio.
When an achiral ligand binds tightly to a chiral host, such as DNA, a CD signal is induced in the wavelength region corresponding to the absorbance of the ligand. […] An additional negative band centered at 395 nm overlaps with the higher energy exciton band. […] Restriction of the rotational and translational freedom of the two molecules of the dimer relative to each other will cause an increase in the rotational strength of the induced CD band, resulting in a large ellipticity. See Allenmark, S., Chirality, 15, 409-422 (2003).
Some compounds appeared to bind to the telomeric G-quadruplex DNA sequence d[AG3(T2AG3)3] […] Relative strength of the induced CD is indicated by the number of (+) marks.

N=C(N)c1ccc(-c2ccc(-c3ccc(C(=N)N)o3)o2)cc1 [Compound 8, 5′-(4-Amidinophenyl)-2,2′-bifuran-5-carboxamidine]
exciton splitting in CD spectra (in words) [1]: exhibited exciton splitting
exciton splitting in CD spectra (in words) [2]: exhibited exciton splitting
ΔTm [3]: approximately 10 °C
exciton splitting in CD spectra (in words) [4]: induced exciton splitting
Induced CD (exciton) ([4]; G-Quadruplex Affinity): +++++
